Data on five substances can be found in paper PMC8016831, “Structure–function engineering of novel fish gelatin-derived multifunctional peptides using high-resolution peptidomics and bioinformatics” (Scientific Reports, 2021).

The subject of one data set is E. coli (ATCC 8739). Type of data set: cell-based, Escherichia coli. Particulars: ATCC 8739, 24 h. The procedure: (§1) The hydrolysates were investigated for their antibacterial activity against E. coli (ATCC 8739), P. aeruginosa (ATCC 9027), S. aureus (ATCC 6538), and K. pneumoniae (ATCC 43816) using the […]. Briefly, 50 μL of different concentrations of peptides were prepared in sterile Mueller Hinton broth. A volume of 30 μL of resazurin indicator solution (0.02%) was added to each well. An equal volume of bacterial suspension (0.5 McFarland standard) and sterile Mueller Hinton broth was then added to the well and incubated at 37 °C for 24 h. Sterile Mueller Hinton broth and 20 μg mL^−1 gentamycin were used as blank and positive controls, respectively. Afterward, the minimum inhibitory concentration (MIC) was determined as the lowest concentration of the peptides at which no visible growth was observed, compared to the positive control. All dilutions were performed in duplicate.

The test system of data set [1] is P. aeruginosa (ATCC 9027). Type of data set: cell-based, Pseudomonas aeruginosa. Particulars: ATCC 9027, 24 h. As for the experimental part: as §1
The target of data set [2] is dipeptidyl peptidase IV (DPP-IV) (Homo sapiens, UniProt P27487). Description: In vitro antidiabetic assay (DPP-IV inhibition). Type of data set: biochemical. As for the experimental part: To assess antidiabetic activity, a pre-incubated solution (50 μL) containing 30 μL Tris-HCl buffer, 5 μL of peptides (0.1, 0.2, 0.4, 0.8, 1, 2, and 4 mg mL^−1) or standard (5 μM), and 15 μL […] were poured into the wells of a 96-well microplate. Afterward, 50 μL DPP-IV (0.02 U mL^−1) was added to the mixture and incubated at 37 °C for 30 min. The reaction was stopped by adding 100 μL sodium acetate (1 M, pH 4). Absorbance at 405 nm was measured in a microplate reader. Diprotein-A (isoleucine-proline-isoleucine) was used as a standard DPP-IV inhibitor. The antidiabetic activity was calculated as follows:3 DPP - IVinhibitoryactivity(%)=1-Asample-Ablanck/Apositicecontrol-Anegativecontrol×100
Tris-HCl (100 mM) was added to the mixture instead of DPP-IV, peptide, or peptide plus DPP-IV to represent a blank, positive, and negative control, respectively.

For data set [3], the target named is angiotensin-converting enzyme (ACE) (Homo sapiens, UniProt P12821). The data set can be described thus: In vitro antihypertensive assay (ACE inhibition, FAPGG, spectrophotometric). The class given is biochemical. As for the experimental part: A spectrophotometrical method was used to determine the antihypertensive activity of peptides according to the procedure of Asoodeh, et al.[18], with some modifications. ACE (22 µL at 50 mU mL^−1) was mixed with 50 µL of the peptides at increasing concentrations (0.1, 0.2, 0.4, 0.8, 1, and 2 mg mL^−1). FAPGG (100 µL at 0.5 mM) and 150 µL of ACE buffer (50 mM Tris-HCl [pH 7.5] containing 0.3 M NaCl and 1 mM ZnCl2) were added to the mixture, followed by monitoring at 340 nm for 60 min. The antihypertensive activity was calculated as follows:2 Antihypertensiveactivity%=1-ΔAbssample/ΔAbscontrol×100
The ACE buffer was added to the mixture instead of the peptides for control. For determination of the experiment precision, captopril (15 nM) was used as positive control. The half maximal inhibitory concentration (IC50) was defined as the concentration of the peptides at which 50% of ACE activity was inhibited. All experiments were performed in triplicate.

Another data set in a line: in vitro. Type of data set: cell-based. The settings on record: human, Caco-2 cells. As for the experimental part: The synthesized peptides were investigated for ACE and DPP-IV inhibitory activity, and antibacterial potential against E. coli, P. aeruginosa, S. aureus, and K. pneumoniae. Their cytotoxicity was also analyzed using the method described by Benjakul et al.[20], with some modifications. Briefly, Caco-2 and L929 cell lines were cultured in Dulbecco's Modified Eagle Medium and the RAW264.7 cell line in RPMI 1640 medium and incubated at 5% CO2 and 37 °C. All media were supplemented with 10% fetal bovine serum. Each cell line (100 µL at 2 × 10^4 cells mL^−1) was seeded onto 96-well microplates and mixed with an equal volume of each peptide at 1, 2, 4, and 6 mg mL^−1. Subsequently, the microplate was incubated for 72 h, followed by a cell viability assay using the MTT I proliferation kit (Roche Diagnostics, Basel, Switzerland). The absorbance was recorded at 570 nm.

Another data set concerns S. aureus (ATCC 6538). Type of data set: cell-based, Staphylococcus aureus. Particulars: ATCC 6538, 24 h. As for the experimental part:
as §1

In data set [4] the test system is K. pneumoniae (ATCC 43816). Type of data set: cell-based, Klebsiella pneumoniae. The settings on record: ATCC 43816, 24 h. As for the experimental part:
as §1

In a further data set the test system is DPP-IV. Also noted: method as in PMID 26323964. Particulars: cited from earlier work.
The test system of a further data set is ACE. The settings on record: cited from earlier work.

Ends that are not written are not given here.

Sequence of angiotensin-converting enzyme (ACE) (P12821 30-1306, species assumed): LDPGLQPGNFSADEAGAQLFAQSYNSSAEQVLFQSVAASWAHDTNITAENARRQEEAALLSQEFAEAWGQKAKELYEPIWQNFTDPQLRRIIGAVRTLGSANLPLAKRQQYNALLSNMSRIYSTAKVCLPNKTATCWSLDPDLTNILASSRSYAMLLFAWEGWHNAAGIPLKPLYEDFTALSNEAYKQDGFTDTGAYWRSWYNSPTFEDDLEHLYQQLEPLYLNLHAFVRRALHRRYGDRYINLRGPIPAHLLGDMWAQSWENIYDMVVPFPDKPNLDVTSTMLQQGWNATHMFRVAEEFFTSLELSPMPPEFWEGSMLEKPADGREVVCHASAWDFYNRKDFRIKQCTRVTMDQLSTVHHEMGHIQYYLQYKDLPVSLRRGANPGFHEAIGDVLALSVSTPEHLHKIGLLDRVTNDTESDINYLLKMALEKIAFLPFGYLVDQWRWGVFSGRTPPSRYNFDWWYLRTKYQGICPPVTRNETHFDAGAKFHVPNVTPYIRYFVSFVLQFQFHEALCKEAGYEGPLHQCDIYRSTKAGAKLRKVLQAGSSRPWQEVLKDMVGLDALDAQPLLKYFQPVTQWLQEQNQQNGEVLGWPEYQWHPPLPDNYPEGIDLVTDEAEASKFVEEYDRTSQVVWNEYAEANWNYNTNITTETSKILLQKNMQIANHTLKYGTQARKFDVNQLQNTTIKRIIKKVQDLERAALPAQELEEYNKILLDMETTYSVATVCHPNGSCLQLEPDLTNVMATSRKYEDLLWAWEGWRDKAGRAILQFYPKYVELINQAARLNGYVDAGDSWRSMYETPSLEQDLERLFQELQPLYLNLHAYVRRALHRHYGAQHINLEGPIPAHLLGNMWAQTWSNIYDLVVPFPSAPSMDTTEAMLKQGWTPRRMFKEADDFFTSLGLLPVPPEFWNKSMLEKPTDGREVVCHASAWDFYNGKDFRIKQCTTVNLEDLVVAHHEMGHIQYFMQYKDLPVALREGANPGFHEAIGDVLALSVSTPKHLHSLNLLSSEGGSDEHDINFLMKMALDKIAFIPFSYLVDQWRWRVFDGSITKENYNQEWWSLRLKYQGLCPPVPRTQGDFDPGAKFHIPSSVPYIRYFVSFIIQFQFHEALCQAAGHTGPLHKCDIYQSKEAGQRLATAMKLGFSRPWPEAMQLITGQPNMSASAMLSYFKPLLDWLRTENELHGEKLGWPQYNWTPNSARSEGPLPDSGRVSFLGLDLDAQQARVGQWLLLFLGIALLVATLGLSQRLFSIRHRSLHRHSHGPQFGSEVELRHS
Sequence of dipeptidyl peptidase IV (DPP-IV) (P27487 whole entry, species assumed): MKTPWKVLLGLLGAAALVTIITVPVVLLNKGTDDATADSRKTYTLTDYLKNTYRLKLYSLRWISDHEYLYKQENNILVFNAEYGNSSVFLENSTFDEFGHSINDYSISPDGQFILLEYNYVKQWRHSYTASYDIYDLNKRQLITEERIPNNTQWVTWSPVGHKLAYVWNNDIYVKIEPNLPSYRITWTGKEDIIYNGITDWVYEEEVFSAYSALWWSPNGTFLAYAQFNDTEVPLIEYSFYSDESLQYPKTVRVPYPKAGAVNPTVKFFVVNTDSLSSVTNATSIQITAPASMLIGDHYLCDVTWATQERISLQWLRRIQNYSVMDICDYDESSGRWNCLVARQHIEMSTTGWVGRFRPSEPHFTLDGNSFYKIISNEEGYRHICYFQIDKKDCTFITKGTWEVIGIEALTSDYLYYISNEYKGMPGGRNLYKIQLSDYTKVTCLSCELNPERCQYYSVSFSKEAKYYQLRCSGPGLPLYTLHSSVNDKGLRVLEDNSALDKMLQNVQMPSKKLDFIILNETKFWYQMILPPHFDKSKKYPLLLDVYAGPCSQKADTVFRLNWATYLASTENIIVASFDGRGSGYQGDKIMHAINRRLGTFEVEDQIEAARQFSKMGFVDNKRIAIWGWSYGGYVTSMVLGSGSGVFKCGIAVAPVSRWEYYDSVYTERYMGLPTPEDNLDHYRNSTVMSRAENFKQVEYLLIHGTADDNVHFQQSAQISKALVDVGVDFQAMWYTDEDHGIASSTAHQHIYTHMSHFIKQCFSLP

On to GRDGEP-NH2 [P2, GRDGEP], for which the “MIC for E. coli” value with E. coli (ATCC 8739) is 1330 µg/mL. For the same substance, in data set [1], the “MIC against P. aeruginosa” value is not below 2000 µg/mL. For the same substance, the IC50 was 1480 µM in data set [2] and 811 µM in data set [3]. In addition, the viability at 72 h, 6 mg mL^−1 in “in vitro” stood at 95.8%. Further, in the data set on S. aureus (ATCC 6538), the “MIC against S. aureus” value stood at 1160 µg/mL. For the same substance, the “MIC against K. pneumoniae” value in [4] is not below 2000 µg/mL.
Take MTGTQGEAGR-NH2 [P3, MTGTQGEAGR]: in the data set on E. coli (ATCC 8739), the “MIC for E. coli” value stood at 460 µg/mL. For the same substance, the “MIC against P. aeruginosa” value in data set [1] was 1660 µg/mL. For the same substance, the IC50 was 1150 µM in data set [2] and 775 µM in data set [3]. Besides, the viability at 72 h, 6 mg mL^−1 in the data set “in vitro” was 95.9%. In addition, in the data set with S. aureus (ATCC 6538), the “MIC against S. aureus” value was 200 µg/mL. The “MIC against K. pneumoniae” value in [4] was determined as 1500 µg/mL.
Take SPTVMFPPQSVL: in the data set on DPP-IV, the DPP-IV inhibitory activities result is given as “moderate”.
MHQPPQPL: the DPP-IV inhibitory activities result with DPP-IV is “moderate”.
Take VLAQYK: the ACE inhibition in the data set on ACE is listed as 30.1%.

By IC50 is commonly meant the concentration at which inhibition is half-maximal. A higher IC50 goes with weaker potency in that assay. Broadly, the viability is a read-out of living cells in per cent, often relative to untreated cells. Low values mean a greater loss of cells, high ones better survival.
